Data as given in US4590264A, “Lipoglycosides and process of extracting same” (Wofor AG, priority 1983, dated 1986).
“Also recorded” adds a separate entry of the source.

Tests used:
Solubility in solvents = type: physicochemical; details: solvents as named in the value
[1] = test system: tumor cells derived from human carcinoma of the nasopharynx (KB cells); assay: KB cell assay: cytotoxicity, cell count (alive, dead) after 48 h incubation; type: cell-based; details: for Cell count after incubation, dead / Cell count after incubation, alive: cell count before incubation = 100, Table 3; for Cell count after incubation, dead: control 0; for Cell count after incubation, alive: control 200
Description: The plant is subjected to extraction in various solvents having different polarities (i.e. dielectric constants) at room temperature for a period of from 1 to 10 days. By room temperature, it is meant from about 20° C. to about 25° C. The extract-containing solvents are each tested for their biological activity. As a measure of biological activity, the cytotoxicity of the extracts against tumor cells derived from human carcinoma of the nasopharynx (KB cells) is measured. Those extracts which show the capability of killing KB cells are fractionated to yield the compounds of the present invention.
A sample of cells was taken from a stock supply furnished by a well known commercial laboratory. The primary culture was Minimal Essential Medium (MEM), Flo Laboratories, 10% fetal calf serum. Trypsinization was conducted with 0.2% trypsin in isotonic NaCl. The cells were counted with 0.1% Tripan Blue. The cells were subcultured in a 5 to 1 split in microtiter plates at 2×10^5 cells per well. The volume of culture placed in each well was 1 ml. The cells were counted at three locations before the addition of the extract to yield an average cell count.
Each of the extracts to be tested was added to the cells at a specific concentration as an ethanolic solution. The cells were incubated at 37° C. for 48 hours. Thereafter, the cells were again counted at three locations to provide an average cell count.
As a control, a cell sample was incubated for the same period in culture medium and without the addition of any plant extract.
Each of the extracts obtained above was tested for its effect on KB cells. The cell culture assay protocol described above was used.

SMILES	Solubility (in words) (Solubility in solvents)	Cell count after incubation, dead ([1]; 10 μg/ml)	Cell count after incubation, alive ([1]; 10 μg/ml)	Cell count after incubation, dead ([1]; 100 μg/ml)	Cell count after incubation, alive ([1]; 100 μg/ml)	activity against KB cells / antitumor activity (in words) [1]
CCC1CCCCCCCCCCCCCCCCCCC(=O)OC[C@H]2O[C@@H](O1)[C@H](OC(C)=O)[C@@H](O)[C@@H]2O (stereo partly shown) [Compound I]	Soluble in CHCl3, methanol; also recorded: Sparingly soluble in acetyl ethyl ether and acetone; also recorded: Insoluble in ethyl ether and petroleum ether	0	15	0	0	active; also recorded: possess antitumor properties
CCC(O)CCCCCCCCCCCCCCCCCCC(=O)OC (stereo not shown) [Example 5, 20-hydroxydocosanoic acid methyl ester]	soluble in n-hexane, benzene and chloroform but insoluble in methanol and acetone	–	–	–	–	–
CCC1CCCCCCCCCCCCCCCCCCC(=O)OC[C@H]2O[C@@H](O1)[C@H](O)[C@@H](OC(C)=O)[C@@H]2O (stereo partly shown) [Compound II]	soluble in CH2 Cl2 and benzene but insoluble in methanol and ether; also recorded: Insoluble in methanol, ethyl ether	0.5	104.5	0	0	active; also recorded: possess antitumor properties
